Results on three compounds are retold here after patent US4424222A, “Pyridobenzodiazepinones, pharmaceutical compositions and method of use thereof” (Karl Thomae GmbH, priority 1982, dated 1984).

A word on the IC50: it is the concentration at which inhibition is half-maximal. By ED50 is commonly meant the midpoint of the dose-response relation.

The structures appear in SMILES notation.

Series [1] concerns the target muscarinic receptors (cerebral cortex). Put plainly: Receptor binding test (3H-N-methylscopolamine displacement), cerebral cortex. The arrangement: species or system Sprague-Dawley rats. The note with it: 0.3 n molar 3H-NMS, 30° C., 45 minutes, read-out: Receptor binding tests IC50, Cortex. On the procedure:
(§1) The organ donors were male Sprague-Dawley rats with a body weight of from 180 to 200 g. After the heart, stomach and cerebral cortex had been removed, the remainder of the operation was carried out in ice-cold Hepes-HCl buffer (pH 7.4; 100 m molar NaCl, 10 m molar MgCl2). The smooth muscle of the fundus of the stomach was separated from the mucous membrane of the stomach and subjected to preliminary homogenization. The whole heart was cut up with scissors. All the organs were then homogenized in a Potter apparatus.
(§2) For the binding test, the homogenized organs were diluted as follows:
(§3) The homogenized organ preparations were incubated at a specific concentration of a radio labeled compound and with a series of concentrations of the non-radioactive test substances in an Eppendorf centrifuge tube at 30° C. Then duration of incubation was 45 minutes. 0.3 n molar ^3 H-N-methylscopolamine (^3 H-NMS) was used as the radio labeled compound. After incubation had been brought to an end by centrifuging at 14 000 g, the radioactivity in the pellet was determined. It represents the sum of the specific and non-specific binding of ^3 H-NMS. The proportion of non-specific binding was defined as the radioactivity which was bound in the presence of 1μ molar quinuclidinylbenzylate. Four measurements were taken in each case. The IC50 values of the non-labelled test substances were determined graphically. They represent the concentration of test substance at which the specific binding of ^3 H-NMS to the muscarinic receptors in the various organs was inhibited by 50%.

Series [2] addresses muscarinic receptors (smooth muscle of the fundus of the stomach). Put plainly: Receptor binding test (3H-N-methylscopolamine displacement), smooth muscle fundus of stomach. The arrangement: species or system Sprague-Dawley rats. The note with it: 0.3 n molar 3H-NMS, 30° C., 45 minutes, read-out: Receptor binding tests IC50, Smooth muscle fundus of stomach. On the procedure:
as §1, §2
Smooth muscle of the fundus of the stomach: 1:100
as §3

Series [3] has as its system muscarinic receptors (oxotremorine-induced lesions of the gastric mucous membrane). Nature of the series: Oxotremorine test: anti-ulcerative effect (lesions in mucous membrane of stomach). The class given is in vivo, albino rats (Crl:COBS-CD (SD) BR strain). As to conditions: iv; rat, i.v. 15 minutes before oxotremorine 0.62 mg/kg i.v.; neostigmine 1 mg/kg oral. On the procedure:
(§4) Oxotremorine, a specific agonist for muscarinic receptors, produces lesions in the mucous membrane of the stomach in rats and increases their secretion of saliva. This test method was chosen so that any selective activity of an antimuscarinic substance on the stomach could be identified.
(§5) 10 female albino rats (of the Crl:COBS-CD (SD) BR strain) with a body weight of from 120 to 150 g were used in each treatment group and were kept without food for 24 hours before the start of the test but given free access to drinking water.
(§6) In order to determine, in preliminary tests, the muscarinic effect of oxotremorine on each of the symptoms studied, a dosage/activity curve was drawn up with at least three dosages for each symptom.
(§7) When testing the antimuscarinic substances, the dosage of oxotremorine which triggered the symptom in question in 90 to 100% of the animals in the preliminary tests was used.
Lesions in mucous membrane of stomach: 0.62 mg/kg i.v.
(§8) Each antimuscarinic substance was administered intravenously in uniformly graduated doses 15 minutes before the oxotremorine was administered. Control groups were given corresponding quantities of the solvent and suspending agent without the test substance.
(§9) Immediately after the oxotremorine was administered, the animals were placed in a glass case for 15 minutes and observed.
(§10) The ED50 values were determined using the method described by LITCHFIELD and WILCOXON (J. Pharmacol. Exp. Ther. 96, 99, 1949).
The effects on lesions of the mucous membrane of the stomach were evaluated as follows:
The lesions of the gastric mucous membrane were produced by intravenous injection of 0.62 mg/kg of oxotremorine 30 minutes after the oral administration of 1 mg/kg of neostigmine (a cholinesterase inhibitor). 60 minutes after the administration of the neostigmine, the animals were killed, the stomachs were removed and opened and examined for the presence of any lesions in the mucous membrane. The protective effect of the test substances was expressed as the percentabge inhibition (percentage of animals without lesions). The ED50 and ED70 values were determined using the method of LITCHFIELD AND WILCOXON (see above).

A short description of series [4]: Oxotremorine test: inhibition of salivation. The arrangement: species or system albino rats (Crl:COBS-CD (SD) BR strain). As to conditions: in vivo, iv; rat, i.v. 15 minutes before oxotremorine 0.083 mg/kg i.v.; double blind. As for the experimental part: as §4, §5, §6, §7
Secretion of saliva: 0.083 mg/kg i.v.
as §8, §9, §10

A short description of series [5]: Mydriasis (effect on pupil size). The arrangement: species or system rats. The note with it: in vivo, iv; rat, pupil size observed for 10 minutes; double blind. On the procedure:
The effect of the test substances on the pupil size in rats was investigated as follows:
The substances were administered intravenously to groups of 10 animals in at least three uniformly graduated doses. […] The percentage of test animals in which mydriasis occurred was determined. The ED50 values were again determined using the method of LITCHFIELD and WILCOXON (see above).

The nature of series [6]: Water solubility of the base (remark). The class given is physicochemical. As to conditions: free base.
For series [7], the target named is T1, muscarinic receptors (whole heart) (Rattus norvegicus, UniProt P10980).
T1 construct: All the organs were then homogenized in a Potter apparatus; from tissue; host or cells: whole heart homogenate of male Sprague-Dawley rats
T1 sequence (P10980 1-466): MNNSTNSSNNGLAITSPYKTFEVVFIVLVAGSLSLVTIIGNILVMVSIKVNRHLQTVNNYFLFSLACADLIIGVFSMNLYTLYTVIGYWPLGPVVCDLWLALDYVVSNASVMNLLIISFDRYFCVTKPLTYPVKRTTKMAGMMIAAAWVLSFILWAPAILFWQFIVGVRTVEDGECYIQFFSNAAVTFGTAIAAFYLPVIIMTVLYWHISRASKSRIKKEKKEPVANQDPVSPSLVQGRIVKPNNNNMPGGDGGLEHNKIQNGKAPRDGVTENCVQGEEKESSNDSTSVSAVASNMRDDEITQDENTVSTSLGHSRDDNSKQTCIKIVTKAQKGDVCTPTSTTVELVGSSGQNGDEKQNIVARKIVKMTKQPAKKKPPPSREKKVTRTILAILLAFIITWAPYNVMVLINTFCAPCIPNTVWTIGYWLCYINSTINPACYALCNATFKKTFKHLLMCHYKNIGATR
Nature of the series: Receptor binding test (3H-N-methylscopolamine displacement), heart. The arrangement: species or system Sprague-Dawley rats. As to conditions: 0.3 n molar 3H-NMS, 30° C., 45 minutes, read-out: Receptor binding tests IC50, Heart. As for the experimental part: as §1, §2
as §3, with “They represent the concentration of test substance at which the specific binding of ^3 H-NMS to the muscarinic receptors in the various organs was inhibited by 50%.” left out

`CN1CCN(NC(=O)N2c3ccccc3C(=O)Nc3cccnc32)CC1` [C]: the IC50 in series [1] turned out to be 60 nM; in series [2] it was 900 nM. The ED50 in series [3] amounted to 3.3 µg/kg. The ED70 in series [3] was 0.0052 mg/kg. In series [4], this compound yielded an ED50 at 0.25 h of 0.056 mg/kg. Also, the 50% effect level in series [5] (ED50 at 10 min) was put at a dose of 0.07 mg/kg. The “water solubility (in words)” value in series [6] is listed as “watersoluble”.
Consider `CN1CCC(NC(=O)N2c3ccccc3C(=O)Nc3cccnc32)CC1` [B, 5,11-dihydro-11-[[(1-methyl-4-piperidinyl)amino]carbonyl]-6H-pyrido[2,3-b][1,4]benzodiazepin-6-one], for which the IC50 in series [1] is 200 nM. Further, the IC50 in series [2] stood at 1200 nM. Besides, in series [3], the ED50 turned out to be 6.8 µg/kg and the ED70 turned out to be 0.019 mg/kg. Besides, in series [4], it took a dose of 0.42 mg/kg to reach the 50% effect level (ED50 at 0.25 h). Further, in series [5], the ED50 at 10 min worked out at 0.139 mg/kg.
Consider `CN1CCC(OC(=O)N2c3ccccc3C(=O)Nc3cccnc32)CC1` [A, 5,11-dihydro-11-[[(1-methyl-4-piperidinyl)oxy]carbonyl]-6H-pyrido[2,3,-b][1,4]benzodiazepin-6-one], for which the IC50 in series [1] was 100 nM; in series [2] it was roughly 900 nM; in series [7], 500 nM. The compound further gave an ED50 in series [3] of 10 µg/kg. In addition, in series [3], the ED70 is 0.03 mg/kg. The compound also had a median effective dose (ED50) at 0.25 h in series [4] of 0.85 mg/kg. For the same compound, in series [5], the 50% effect level (ED50 at 10 min) was put at a dose of 0.13 mg/kg.
